Patent publication US20200353438A1, “METHOD OF FABRICATING CELL ARRAYS AND USES THEREOF” (StemoniX Inc., priority 2014, published 2020)

Test system: beating H9 embryonic stem cell derived cardiomyocytes
Test: Drug dosing of beating cardiomyocyte hydrogel array, observed by camera
Format: cell-based
Settings: 1×16 GelMa array after 3 days incubation, visual camera observation
Method: In one example, a Labcyte Echo Model 555 nano liter sonic dispensing system was used to deliver 2 heart drugs, Satolol an Antiarrhythmic drug and Isoproteronol a […], to the fabricated array. The drugs were diluted to 2.25 uM in cell media nutrient solution to prevent dehydration. The Echo 555 liquid handler revolutionizes liquid handling with acoustic energy. Sound waves eject precisely sized droplets from a source onto a microplate, slide or other surface suspended above the source. […] Fluids are transferred in nanoliter increments. Larger volumes are transferred at the rate of hundreds of droplets per second. By using this non contact method it minimizes any contact that could damage or kill the cells as found in other dispensing methods. It also allows for the use of very small quantities thus allowing users to screen molecules that are scarce or difficult to manufacture thus reducing cost. In addition, the X and Y position of the dispensing head can be precisely located over the N×N array location of interest thereby allowing different locations to have a drug of interest administered.
beating H9 embryonic stem cell derived cardiomyocytes were used on day 25 of differentiation. After disassociation a vial with 1 mL of suspension was produced. […] Within those it was determined that 8.38×10^5 live cells were present with tryptan blue. […]

Compound | effect on refectory period (pause in beating) of irregularly beating heart cells | increase in the heart cells beating (dosing with 10 nM)
CC(C)NCC(O)c1ccc(O)c(O)c1 (centres unmarked) [Isoproteronol] | removed the refectory period (pause in beating) of some irregularly beating heart cells | –
CC(C)NCC(O)c1ccc(NS(C)(=O)=O)cc1 (centres unmarked) [Satolol] | – | 30-40%
